The text below walks through data of patent US20060063828A1 (priority 2004, published 2006).

One data set has as its system VCAM-1. Description: In Vitro VCAM-1 Assay (ELISA of VCAM-1 on TNF-α stimulated endothelial cells). The class given is cell-based. The settings on record: Endothelial cell; primary human aortic (HAEC) or pulmonary (HPAEC) endothelial cells, TNF-α (1 ng/ml), approximately 16 hours. As to the method:
Cell Culture and compound dosing: Cultured primary human aortic (HAEC) or pulmonary (HPAEC) endothelial cells were obtained from Clonetics, Inc., and were used below passage 9. Cells were seeded in 96 well plates such that they would reach 90-95% confluency by the following day. On the following day the cells were stimulated with TNF-α (1 ng/ml) in the presence or absence of compounds dissolved in DMSO such that the final concentration of DMSO is 0.25% or less. To establish a dose curve for each compound, four concentrations in 2- to 5-fold increments were used. Cells were exposed to TNF-α and compounds for approximately 16 hours. The next day the cells were examined under microscope to score for visual signs of toxicity or cell stress.
Following 16 hr exposure to TNF-α and compound the media was discarded and the cells were washed once with Hanks Balanced Salt Solution (HBSS)/Phosphate buffered saline (PBS) (1:1). Primary antibodies against VCAM-1 (0.25 μg/ml in HBSS/PBS+5% FBS) were added and incubated for 30-60 minutes at 37° C. Cells were washed with HBSS/PBS three times, and secondary antibody Horse Radish Peroxidase (HRP)-conjugated goat anti-mouse IgG (1:500 in HBSS/PBS+5% FBS) were added and incubated for 30 minutes at 37° C. Cells were washed with HBSS/PBS four time and TMB substrate were added and incubated at room temperature in the dark until there was adequate development of blue color. The length of time of incubation was typically 5-15 minutes. 2N sulfuric acid was added to stop the color development and the data was collected by reading the absorbance on a BioRad ELISA plate reader at OD 450 nm. The results are expressed as IC50 values (the concentration (micromolar) of compound required to inhibit 50% of the maximal response of the control sample stimulated by TNF-α only).

The structures appear in SMILES notation.

As to `C=C(C(=O)c1ccc(C(=O)O)cc1)c1ccc(OC)c(-c2cccs2)c1` [Example 1, 4-[2-(4-Methoxy-3-thien-2-yl-phenyl)-acryloyl]-benzoic acid], the melting point was 163 to 164 °C. Besides, the 50% inhibitory concentration (IC50) in the data set with VCAM-1 is under 3 µM. The corresponding values for `C=C(C(=O)c1ccc(C(=O)O)cc1)c1cc(-c2cnc3ccccc3c2)ccc1OC` [Example 2, 4-[2-(2-Methoxy-5-quinolin-3-yl-phenyl)-acryloyl]-benzoic acid] are 232 °C (dec.) and under 1 µM. The corresponding values for `C=C(C(=O)c1ccc(C(=O)O)cc1)c1cc(-c2cccn2C(=O)OC(C)(C)C)ccc1OC` [Example 3, 2-{3-[1-(4-Carboxy-benzoyl)-vinyl]-4-methoxy-phenyl}-pyrrole-1-carboxylic acid tert-butyl ester] are 90 °C (dec.) and under 3 µM.

In the case of `C=C(C(=O)c1ccc(C(=O)O)cc1)c1cc(-c2cccnc2)ccc1OC` [Example 4, 4-[2-(2-Methoxy-5-pyridin-3-yl-phenyl)-acryloyl]-benzoic acid], the melting point was 215 °C (dec.). This compound also showed an IC50 in the data set with VCAM-1 of under 1 µM. The corresponding values for `C=C(C(=O)c1ccc(C(=O)O)cc1)c1cc(-c2cc3ccccc3s2)ccc1OC` [Example 5, 4-[2-(5-Benzo[b]thien-2-yl-2-methoxy-phenyl)-acryloyl]-benzoic acid] are 240 to 242 °C (dec.) and under 1 µM.

`C=C(C(=O)c1ccc(C(=O)O)cc1)c1c(OC)cc(-c2cccs2)cc1OC` [Example 6]: the melting point was over 250 °C. Besides, the IC50 in the data set on VCAM-1 is under 1 µM. In turn, `C=C(C(=O)c1c(Cl)cccc1Cl)c1cc(-c2cccs2)ccc1OC` [Example 7, 1-(2,6-Dichloro-phenyl)-2-(2-methoxy-5-thien-2-yl-phenyl)-propenone] registered an IC50 in the data set with VCAM-1 of under 1 µM. `C=C(C(=O)c1ccc(C(=O)OC)cc1)c1cc(-c2cccs2)ccc1OC` [Example 9, 4-[2-(2-Methoxy-5-thien-2-yl-phenyl)-acryloyl]-benzoic acid methyl ester] had a melting point of 126 to 128 °C. In the data set with VCAM-1, this compound came in with an IC50 of under 1 µM. Compound `C=C(C(=O)c1ccc(C(=O)NC(CO)(CO)CO)cc1)c1cc(-c2cccs2)ccc1OC` [Example 10, N-(2-Hydroxy-1,1-bis-hydroxymethyl-ethyl)-4-[2-(2-methoxy-5-thien-2-yl-phenyl)-acryloyl]-benzamide] yielded a melting point of 144 to 146 °C. The same compound returned an IC50 in the data set with VCAM-1 of under 1 µM. The compound `C=C(C(=O)c1ccc(C(=O)N2CCC(O)CC2)cc1)c1cc(-c2cccs2)ccc1OC` [Example 11, 1-[4-(4-Hydroxy-piperidine-1-carbonyl)-phenyl]-2-(2-methoxy-5-thien-2-yl-phenyl)-propenone] had a melting point of 197 to 199 °C. Further, the IC50 in the data set with VCAM-1 is under 1 µM. For `C=C(C(=O)c1cc(-c2cc3ccccc3s2)c(OC)cc1OC)c1ccc(C(=O)OC)cc1` [Example 12, 4-[1-(5-Benzo[b]thien-2-yl-2,4-dimethoxy-benzoyl)-vinyl]-benzoic acid methyl ester], in that order: 184 to 186 °C and under 3 µM.

As for `C=C(C(=O)c1ccc(F)cc1)c1cc(-c2cccs2)ccc1OC` [Example 13, 1-(4-Fluoro-phenyl)-2-(2-methoxy-5-thien-2-yl-phenyl)-propenone], the melting point was in the range of 116 to 121 °C. For the same compound, the IC50 with VCAM-1 is under 3 µM. `C=C(C(=O)c1ccc(N2CCCC2)cc1)c1cc(-c2cccs2)ccc1OC` [Example 14, 2-(2-Methoxy-5-thien-2-yl-phenyl)-1-(4-pyrrolidin-1-yl-phenyl)-propenone] had a melting point of 187 to 190 °C. In the data set on VCAM-1, this compound showed an IC50 of under 3 µM. The corresponding values for `C=C(C(=O)c1ccc(OC)c(-c2cccs2)c1)c1ccc(C(=O)O)cc1` [Example 15, 4-[1-(4-Methoxy-3-thien-2-yl-benzoyl)-vinyl]-benzoic acid] are 204 to 205 °C and under 3 µM. The corresponding values for `C=C(C(=O)c1cc(OC)c(OC)c(-c2cccs2)c1)c1ccc(C(=O)O)cc1` [Example 16, 4-[1-(3,4-Dimethoxy-5-thien-2-yl-benzoyl)-vinyl]-benzoic acid] are 159 to 160 °C and under 1 µM. `C=C(C(=O)c1ccc(O)cc1)c1cc(-c2cccs2)ccc1OC` [Example 17, 1-(4-Hydroxy-phenyl)-2-(2-methoxy-5-thien-2-yl-phenyl)-propenone] registered an IC50 in the data set with VCAM-1 of under 1 µM. As to `C=C(C(=O)c1ccc([N+](=O)[O-])cc1)c1cc(-c2cccs2)ccc1OC` [Example 18, 2-(2-Methoxy-5-thien-2-yl-phenyl)-1-(4-nitro-phenyl)-propenone], the melting point lay in the range of 160 to 162 °C. The IC50 in the data set on VCAM-1 was under 3 µM.

For the compound `C=C(C(=O)c1ccc(NS(C)(=O)=O)cc1)c1cc(-c2cccs2)ccc1OC` [Example 19, N-{4-[2-(2-Methoxy-5-thien-2-yl-phenyl)-acryloyl]-phenyl}-methane-sulfonamide], the melting point fell in the range of 197 to 198 °C. For the same compound, the IC50 in the data set on VCAM-1 is under 1 µM. With `C=C(C(=O)c1ccc(N(C)S(C)(=O)=O)cc1)c1cc(-c2cccs2)ccc1OC` [Example 20, N-{4-[2-(2-Methoxy-5-thien-2-yl-phenyl)-acryloyl]-phenyl}-N-methyl-methanesulfonamide], the IC50 in the data set on VCAM-1 is under 1 µM. `C=C(C(=O)c1ccc(NC(=O)C(C)C)cc1)c1cc(-c2cccs2)ccc1OC` [Example 21, N-{4-[2-(2-Methoxy-5-thien-2-yl-phenyl)-acryloyl]-phenyl}-isobutyramide] displayed a melting point of 155 to 158 °C. This compound displayed an IC50 in the data set with VCAM-1 of under 1 µM. `C=C(C(=O)c1ccc(Nc2ncccn2)cc1)c1cc(-c2cccs2)ccc1OC` [Example 22, 2-(2-Methoxy-5-thien-2-yl-phenyl)-1-[4-(pyrimidin-2-ylamino)-phenyl]-propenone] came in with a melting point of 154 to 155 °C. The same compound showed an IC50 with VCAM-1 of under 1 µM. For `C=C(C(=O)c1ccc(Nc2ncccc2C(=O)OCC)cc1)c1cc(-c2cccs2)ccc1OC` [Example 23, 2-{4-[2-(2-Methoxy-5-thien-2-yl-phenyl)-acryloyl]-phenylamino}-nicotinic acid ethyl ester], in that order: 149 to 151 °C and under 3 µM. The corresponding values for `C=C(C(=O)c1ccc(Nc2ncccc2C(=O)O)cc1)c1cc(-c2cccs2)ccc1OC` [Example 24, 2-{4-[2-(2-Methoxy-5-thien-2-yl-phenyl)-acryloyl]-phenylamino}-nicotinic acid] are 234 °C (dec.) and under 1 µM. For `C=C(C(=O)c1ccc(Nc2cnccn2)cc1)c1cc(-c2cccs2)ccc1OC` [Example 25, 2-(2-Methoxy-5-thien-2-yl-phenyl)-1-[4-(pyrazin-2-ylamino)-phenyl]-propenone], in that order: 178 to 182 °C and under 1 µM.

The compound `C=C(C(=O)c1ccc(NS(=O)(=O)c2c(C)noc2C)cc1)c1cc(-c2cccs2)ccc1OC` [Example 26, 3,5-Dimethyl-isoxazole-4-sulfonic acid {4-[2-(2-methoxy-5-thien-2-yl-phenyl)-acryloyl]-phenyl}-amide] came in with a melting point of 176 to 179 °C. Moreover, in the data set on VCAM-1, the IC50 was under 3 µM.

For `C=C(C(=O)c1c(C)cccc1C)c1cc(-c2cccs2)ccc1OC` [Example 29, 1-(2,6-Dimethyl-phenyl)-2-(2-methoxy-5-thien-2-yl-phenyl)-propenone], in the data set with VCAM-1, the half-maximal inhibitory concentration (IC50) is under 1 µM. The compound `C=C(C(=O)c1c(OC)ccc(-c2cccs2)c1OC)c1ccccc1OC` [Example 31, 1-(2,6-Dimethoxy-3-thien-2-yl-phenyl)-2-(2-methoxy-phenyl)-propenone] came in with an IC50 in the data set on VCAM-1 of under 1 µM. With `C=C(C(=O)c1c(C)cccc1C)c1ccccc1-c1cccs1` [Example 38, 1-(2,6-Dimethyl-phenyl)-2-(2-thien-2-yl-phenyl)-propenone], the IC50 in the data set with VCAM-1 is under 10 µM. Same read-out and setting: then `C=C(C(=O)c1c(C)cccc1C)c1ccccc1-c1cccnc1OC` [Example 39, 1-(2,6-Dimethyl-phenyl)-2-[2-(2-methoxy-pyridin-3-yl)-phenyl]-propenone], with under 6 µM.

Take `C=C(C(=O)c1cc(-c2cccs2)ccc1OC)c1ccc([N+](=O)[O-])cc1` [Example 52, 1-(2-Methoxy-5-thien-2-yl-phenyl)-2-(4-nitro-phenyl)-propenone]: the IC50 in the data set with VCAM-1 is under 3 µM.

The compound `C=C(C(=O)c1cc(-c2cccs2)ccc1OC)c1ccc(C(=O)O)cc1` [Example 54, 4-[1-(2-Methoxy-5-thien-2-yl-benzoyl)-vinyl]-benzoic acid] had an IC50 with VCAM-1 of under 1 µM. The compound `C=C(C(=O)c1ccc(C(=O)O)cc1)c1cc(-c2cccs2)ccc1OC(C)C` [Example 59, 4-[2-(2-Isopropoxy-5-thien-2-yl-phenyl)-acryloyl]-benzoic acid] displayed an IC50 with VCAM-1 of under 1 µM.
